Data: paper PMC11251168, “Effect of ABCB1 most frequent polymorphisms on the accumulation of bictegravir in recombinant HEK293 cell lines” (Scientific Reports, 2024)
Where a name gives a salt, the structure may show the parent alone. Values belong to the compound of their own block, whether it stands above or below them.

Assays:
[1] = system: ABCB1 (HEKWT, HEK1199A, HEKCGT, HEKTTT, HEKcontrol); assay: Model functionality assay: Rhodamine123 intracellular fluorescence with or without zosuquidar; format: cell-based, human; conditions: Rh123 5 μM, 90 min
Experimental: 0.05 × 10^6 cells were seeded on poly-l-lysine coated 96-well plates and incubated overnight. The next day, Rh123 and zosuquidar dilutions were prepared from a stock solution. Cells were incubated for 90 min at 37 °C in the presence of Rh123 at 5 μM. The effect of ABCB1 inhibition was assessed by preincubation of the cells for 15 min with zosuquidar at a concentration of 0.2 μM. After incubation with Rh123, the supernatants were discarded. The cells were washed two times with ice-cold PBS. Sterile water was then added and detachment and lysis were performed through scratching of the well’s surface followed by sonication. Finally, fluorescence of Rh123 was analyzed by an iD3 Spectramax (Molecular Devices) fluorometer (c.1199G > A model validation) or a M3 Spectramax (Molecular Devices) fluorometer (haplotype model validation); excitation wavelength was set at 485 nm and emission at 530 nm. The solution was then used for protein quantification for results normalization.
Statistical analyses were carried out using GraphPad Prism version 9.5.1 for Mac OS X (GraphPad Software). For the functional assays, protein normalized intracellular fluorescences were compared after log-transformation using the natural logarithm (Ln), when required. Comparison was performed using a two-way ANOVA (α = 0.05) followed by a post-hoc analysis testing the effect of the inhibitor, with Bonferroni correction for multiple testing. For the intracellular bictegravir accumulation experiments, triplicates were performed during each experiment, and each experiment was performed thrice. For each experiment, protein normalized bictegravir intracellular concentrations were reported as fold-change of the mean of the protein normalized bictegravir intracellular concentration observed at the lowest bictegravir exposition concentration for HEKcontrol during the same experiment. Fold-change results from the three biological replicates were pooled and are shown on Figs. 3 and 4. Statistical analysis were performed on Ln transformed data that were pooled using the same principle as described here above. […]

[2] = molecular target: T1, ABCB1 wild-type 1199G-1236C-2677G-3435C (Homo sapiens, UniProt P08183, S893A); assay: Intracellular bictegravir accumulation in HEK293 cells overexpressing wild-type ABCB1 (HEKWT); format: in vitro ADME; conditions: 2 h incubation, 0.25-5 mg/l
T1 construct: expressed in transfected cells; host or cells: HEK293 (ATCC), pcDNA3.1 plasmid, G418 selection
Description: (§1) The generation and characterization of recombinant cell lines have been described in previous work conducted by our lab[26],[42]. Briefly, human embryonic kidney (HEK293) cells were purchased from American Type Culture Collection and transfected with plasmids carrying either wild-type ABCB1 1199G-1236C-2677G-3435C (thereafter named HEKWT) or several ABCB1 variant combinations obtained using site-directed mutagenesis, 1199A-1236C-2677G-3435C (thereafter named HEK1199A), 1199G-1236C-2677G-3435T (thereafter named HEKCGT) and 1199G-1236T-2677T-3435T (thereafter named HEKTTT); or an empty vector (thereafter named HEKcontrol). […] This model has previously been extensively characterized using flow cytometry, Western blot, and fluorescence microscopy, and validated using reference substrates and inhibitors of ABCB1[26],[42]. […]
(§2) 0.7 × 10^6 cells were seeded on poly-l-lysine-coated 12-well plates and incubated overnight. […] Cell suspensions were centrifugated for 10 min at 10,500×g, 4 °C and 100 μl of the supernatant was transferred to a vial for bictegravir liquid chromatography-tandem mass spectrometry (LC–MS/MS) quantification. […] This mixed solution was used for protein quantification for results normalization.
(§3) Bictegravir intracellular concentrations were determined using an adapted version of a previously published LC–MS/MS method on a Xevo TQS-micro tandem quadrupole mass spectrometer (Waters)[46]. […]

[3] = molecular target: T2, ABCB1 1199A-1236C-2677G-3435C (Homo sapiens, UniProt P08183, S400N/S893A); assay: Intracellular bictegravir accumulation in HEK293 cells overexpressing ABCB1 1199A variant (HEK1199A); format: in vitro ADME; conditions: 2 h incubation, 0.25-5 mg/l, Fig. 3
T2 construct: expressed in transfected cells; host or cells: HEK293 (ATCC), pcDNA3.1 plasmid, G418 selection
Description: as §1, §2, §3

[4] = molecular target: T3, ABCB1 1199G-1236C-2677G-3435T (Homo sapiens, UniProt P08183, S893A); assay: Intracellular bictegravir accumulation in HEK293 cells overexpressing ABCB1 CGT haplotype (HEKCGT); format: in vitro ADME; conditions: 2 h incubation, 0.25-5 mg/l; Fig. 4
T3 construct: expressed in transfected cells; host or cells: HEK293 (ATCC), pcDNA3.1 plasmid, G418 selection
Description: as §1, §2, §3

[5] = molecular target: T4, ABCB1 1199G-1236T-2677T-3435T (Homo sapiens, UniProt P08183); assay: Intracellular bictegravir accumulation in HEK293 cells overexpressing ABCB1 TTT haplotype (HEKTTT); format: in vitro ADME; conditions: 2 h incubation, 0.25-5 mg/l; Fig. 4
T4 construct: expressed in transfected cells; host or cells: HEK293 (ATCC), pcDNA3.1 plasmid, G418 selection
Description: (§4) The generation and characterization of recombinant cell lines have been described in previous work conducted by our lab[26],[42]. Briefly, human embryonic kidney (HEK293) cells were purchased from American Type Culture Collection and transfected with plasmids carrying either wild-type ABCB1 1199G-1236C-2677G-3435C (thereafter named HEKWT) or several ABCB1 variant combinations obtained using site-directed mutagenesis, 1199A-1236C-2677G-3435C (thereafter named HEK1199A), 1199G-1236C-2677G-3435T (thereafter named HEKCGT) and 1199G-1236T-2677T-3435T (thereafter named HEKTTT); or an empty vector (thereafter named HEKcontrol). HEKCGT was selected, in addition to HEKWT (carrying the CGC haplotype) and HEKTTT, to test the potential impact of c.3435C > T variant. HEK293 cells feature low endogenous levels of expression of ABCB1, ensuring that ABCB1 expression originates almost exclusively from the transfection process. This model has previously been extensively characterized using flow cytometry, Western blot, and fluorescence microscopy, and validated using reference substrates and inhibitors of ABCB1[26],[42]. As the same cells were used, only flow cytometry and functional tests using reference substrates and inhibitors were used to re-characterize them.
as §2
(§5) Bictegravir intracellular concentrations were determined using an adapted version of a previously published LC–MS/MS method on a Xevo TQS-micro tandem quadrupole mass spectrometer (Waters)[46]. […] The following ion transitions were monitored: 450.1 > 289.1 for bictegravir and 453.2 > 289.2 for bictegravir-15N, d2.
(§6) Total proteins were quantified in pellets using the BCA kit (Thermo Fisher Scientific) according to the manufacturer’s instructions. […]

[6] = system: ABCB1 1199G-1236T-2677T-3435T; assay: as above; format: in vitro ADME, human; conditions: 2 h incubation, 0.25-5 mg/l; Fig. 4
Description: as §4, §2, §5, §6

[7] = molecular target: T5, ABCB1 (wild-type, HEK1199G cells; HEKcontrol cells) (Homo sapiens, UniProt P08183, S893A); assay: Intracellular bictegravir accumulation with or without the ABCB1 inhibitor zosuquidar (Supplementary Fig. 2); format: in vitro ADME; conditions: bictegravir 2500 ng/mL, 120 min, zosuquidar 0.2 μM preincubation 15 min
T5 construct: expressed in transfected cells; host or cells: HEK293 (ATCC), pcDNA3.1 plasmid, G418 selection
Experimental: 0.7x10^6 cells were seeded on poly-l-lysine-coated 12-well plates and incubated overnight. The next day, bictegravir and zosuquidar dilutions were prepared from a stock solution. Cells were incubated for 120 minutes at 37 °C (5% CO2) in the presence of bictegravir at 2500 ng/mL. The effect of ABCB1 inhibition was assessed by preincubation of the cells for 15 minutes with zosuquidar at a concentration of 0.2 μM. Subsequently, plates were then centrifuged for 3 min at 4 °C, and maintained on ice throughout the experiment to block drug efflux. Cells were washed twice with 1 mL […]
Drug extraction was then performed as described in the Manuscript, in the Methods section describing Intracellular bictegravir accumulation experiments. Drug quantification and protein quantification were performed as described in the dedicated Methods sections.
Reported statistical analysis: ANOVA-2 with post-hoc Bonferroni correction test, performed on log- […]
(1 picture or pasted object on this page, not shown here)

[8] = parameters: method as in PMID 36701274; conditions: cited from earlier work
[9] = parameters: method as in PMID 36701274; conditions: cited from earlier work; remark: listed apart in the source
[10] = system: ABCB1; parameters: method as in PMID 36701274; conditions: ABCB1-overexpressing MDCK II transfected cells compared with non-transfected cells; cited from earlier work
[11] = parameters: method as in PMID 36701274; conditions: thought to be mainly due to passive diffusion; cited from earlier work
[12] = parameters: method as in PMID 32868324, PMID 32199329; conditions: cited from earlier work
[13] = parameters: method as in PMID 32868324, PMID 32199329; conditions: cited from earlier work; remark: listed apart in the source
[14] = system: human peripheral blood mononuclear cells; parameters: method as in PMID 36806669; conditions: cited from earlier work
[15] = system: ABCB1 c.1199G > A variant; conditions: cited from earlier work
[16] = system: PBMCs; assay: Preliminary clinical pharmacokinetic assessments of intracellular accumulation in PBMCs; format: in vivo
[17] = system: ABCB1 c.1236C > T, c.2677G > T and c.3435C > T variants; conditions: cited from earlier work
[18] = zosuquidar 0.2 μM, 15 min preincubation

T3 sequence (P08183 whole entry S893A): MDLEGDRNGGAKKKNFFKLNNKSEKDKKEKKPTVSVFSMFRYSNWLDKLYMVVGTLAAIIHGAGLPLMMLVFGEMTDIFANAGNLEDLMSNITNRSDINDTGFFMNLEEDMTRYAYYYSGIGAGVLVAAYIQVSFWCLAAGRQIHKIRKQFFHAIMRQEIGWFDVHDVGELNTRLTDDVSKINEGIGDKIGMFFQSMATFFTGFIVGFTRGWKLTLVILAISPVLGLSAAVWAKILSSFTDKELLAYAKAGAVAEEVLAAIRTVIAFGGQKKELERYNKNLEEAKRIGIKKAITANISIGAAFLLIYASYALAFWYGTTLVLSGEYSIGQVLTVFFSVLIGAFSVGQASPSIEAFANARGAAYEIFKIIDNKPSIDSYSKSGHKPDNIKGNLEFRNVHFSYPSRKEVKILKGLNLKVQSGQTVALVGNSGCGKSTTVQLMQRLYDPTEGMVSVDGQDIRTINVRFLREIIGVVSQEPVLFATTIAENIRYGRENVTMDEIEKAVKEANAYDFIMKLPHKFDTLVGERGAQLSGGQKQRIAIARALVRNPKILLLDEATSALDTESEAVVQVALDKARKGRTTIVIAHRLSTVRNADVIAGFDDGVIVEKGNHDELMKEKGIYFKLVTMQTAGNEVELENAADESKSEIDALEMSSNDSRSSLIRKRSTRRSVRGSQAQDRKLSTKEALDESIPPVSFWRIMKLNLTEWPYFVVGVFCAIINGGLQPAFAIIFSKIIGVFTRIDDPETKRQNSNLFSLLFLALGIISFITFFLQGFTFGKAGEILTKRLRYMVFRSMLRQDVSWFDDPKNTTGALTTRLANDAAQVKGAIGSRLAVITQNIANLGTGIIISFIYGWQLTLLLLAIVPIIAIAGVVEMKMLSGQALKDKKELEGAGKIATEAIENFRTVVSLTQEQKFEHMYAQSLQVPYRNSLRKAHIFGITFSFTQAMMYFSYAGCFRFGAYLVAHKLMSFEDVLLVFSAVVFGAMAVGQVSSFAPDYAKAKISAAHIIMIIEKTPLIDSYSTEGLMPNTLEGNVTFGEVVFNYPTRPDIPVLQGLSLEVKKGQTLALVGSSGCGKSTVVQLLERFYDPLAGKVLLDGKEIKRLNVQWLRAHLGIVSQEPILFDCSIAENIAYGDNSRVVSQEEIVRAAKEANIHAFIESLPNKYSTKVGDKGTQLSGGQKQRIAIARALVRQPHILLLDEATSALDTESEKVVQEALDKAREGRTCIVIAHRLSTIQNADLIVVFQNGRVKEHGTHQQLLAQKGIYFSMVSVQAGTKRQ
T1 sequence (P08183 whole entry S893A): as above
T2 sequence (P08183 whole entry S400N/S893A): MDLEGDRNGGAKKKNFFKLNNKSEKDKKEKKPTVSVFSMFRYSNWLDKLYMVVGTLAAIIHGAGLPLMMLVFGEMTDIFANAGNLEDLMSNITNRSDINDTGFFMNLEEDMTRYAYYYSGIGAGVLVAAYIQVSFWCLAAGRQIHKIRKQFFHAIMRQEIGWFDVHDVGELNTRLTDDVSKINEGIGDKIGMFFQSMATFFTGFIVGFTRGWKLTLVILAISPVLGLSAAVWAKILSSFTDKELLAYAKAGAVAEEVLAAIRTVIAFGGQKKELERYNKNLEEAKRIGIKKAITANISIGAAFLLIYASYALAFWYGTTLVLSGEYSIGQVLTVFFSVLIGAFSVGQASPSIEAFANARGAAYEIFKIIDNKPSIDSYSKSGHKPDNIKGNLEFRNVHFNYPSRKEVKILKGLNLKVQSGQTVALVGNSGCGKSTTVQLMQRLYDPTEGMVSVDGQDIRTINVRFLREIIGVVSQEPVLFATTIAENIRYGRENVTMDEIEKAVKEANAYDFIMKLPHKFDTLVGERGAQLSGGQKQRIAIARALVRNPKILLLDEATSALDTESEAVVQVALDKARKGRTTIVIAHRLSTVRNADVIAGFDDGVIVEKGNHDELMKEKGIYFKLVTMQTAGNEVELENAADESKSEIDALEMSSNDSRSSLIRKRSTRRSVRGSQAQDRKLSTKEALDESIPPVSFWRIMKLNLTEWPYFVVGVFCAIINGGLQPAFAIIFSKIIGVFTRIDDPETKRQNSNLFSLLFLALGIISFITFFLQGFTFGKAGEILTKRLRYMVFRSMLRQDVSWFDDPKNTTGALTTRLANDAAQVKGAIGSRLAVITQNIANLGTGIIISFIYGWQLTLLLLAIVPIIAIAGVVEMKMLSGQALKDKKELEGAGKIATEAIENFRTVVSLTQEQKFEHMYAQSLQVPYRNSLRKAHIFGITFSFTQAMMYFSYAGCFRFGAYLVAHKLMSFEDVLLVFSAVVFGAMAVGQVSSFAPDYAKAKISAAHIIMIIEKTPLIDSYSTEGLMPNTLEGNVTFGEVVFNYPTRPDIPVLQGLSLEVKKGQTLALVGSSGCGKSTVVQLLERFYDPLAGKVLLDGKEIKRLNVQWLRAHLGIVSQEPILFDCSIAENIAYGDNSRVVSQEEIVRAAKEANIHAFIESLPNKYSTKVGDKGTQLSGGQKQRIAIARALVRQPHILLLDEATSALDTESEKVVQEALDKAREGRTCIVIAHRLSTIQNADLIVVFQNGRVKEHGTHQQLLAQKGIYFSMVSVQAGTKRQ
T5 sequence (P08183 whole entry S893A): as the sequence (P08183 whole entry S893A) above

Compound: COC(=O)c1ccccc1-c1c2ccc(=N)cc-2oc2cc(N)ccc12 [Rh123, Rhodamine123]
- Rh123 intracellular fluorescence in cell lines overexpressing ABCB1 compared to HEKcontrol ([1]; HEKWT, HEK1199A, HEKCGT and HEKTTT, without zosuquidar): significantly lower

- bictegravir intracellular accumulation, HEKWT versus HEKcontrol ([2]; c.1199G > A experiments, protein-normalized, fold-change, Fig. 3): significantly lower
- bictegravir intracellular accumulation, HEKWT versus HEKcontrol ([2]; haplotype experiments, Fig. 4): significantly lower
- difference of bictegravir intracellular accumulation between HEKWT and HEK1199A [3]: did not show any significant difference
- bictegravir intracellular accumulation, HEK1199A versus HEKcontrol ([3]; protein-normalized, fold-change): significantly lower
- bictegravir intracellular accumulation, HEKCGT versus HEKcontrol [4]: significantly lower
- difference of bictegravir intracellular accumulation, HEKWT vs HEKCGT [4]: did not show any significant difference
- bictegravir intracellular accumulation, HEKTTT versus HEKcontrol [5]: significantly lower
- difference of bictegravir intracellular accumulation, HEKCGT vs HEKTTT [6]: did not show any significant difference
- difference of bictegravir intracellular accumulation, HEKWT vs HEKTTT [6]: did not show any significant difference
- change of bictegravir intracellular accumulation in the presence of zosuquidar, HEK1199G cells [7]: significant increase
Compound: O=C(NCc1c(F)cc(F)cc1F)c1cn2c(c(O)c1=O)C(=O)N1[C@H]3CC[C@H](C3)O[C@@H]1C2 [bictegravir]
- biopharmaceutical classification system class [8]: class II
- solubility (biopharmaceutical classification system) [8]: low solubility
- permeability (biopharmaceutical classification system) [9]: high permeability
- transepithelial permeability [9]: High
- transport by ABCB1 [10]: active transport
- oral bioavailability [11]: high
- ratios of cerebrospinal fluid over plasma bictegravir concentrations [12]: low
- plasma protein binding [13]: high
- accumulation into human peripheral blood mononuclear cells [14]: limited

Compound: Cc1nc(Nc2ncc(C(=O)Nc3c(C)cccc3Cl)s2)cc(N2CCN(CCO)CC2)n1 [dasatinib]
- effect of c.1199G > A variant on transport [15]: affect the transport

- intracellular accumulation in PBMCs compared to bictegravir [16]: higher
Compound: C[C@@H]1CCO[C@H]2Cn3cc(C(=O)NCc4ccc(F)cc4F)c(=O)c(O)c3C(=O)N12 [dolutegravir]

Compound: Cc1ccc(NC(=O)c2ccc(CN3CCN(C)CC3)cc2)cc1Nc1nccc(-c2cccnc2)n1 [imatinib]
- impact of c.1236C > T, c.2677G > T and c.3435C > T variants on anti-proliferative activity [17]: more pronounced effect

Compound: Cc1cn(-c2cc(NC(=O)c3ccc(C)c(Nc4nccc(-c5cccnc5)n4)c3)cc(C(F)(F)F)c2)cn1 [nilotinib]
- effect of c.1199G > A variant on transport [15]: affect the transport

Compound: C=CC[C@@H]1/C=C(\C)C[C@H](C)C[C@H](OC)[C@H]2O[C@@](O)(C(=O)C(=O)N3CCCC[C@H]3C(=O)O[C@H](/C(C)=C/[C@@H]3CC[C@@H](O)[C@H](OC)C3)[C@H](C)[C@@H](O)CC1=O)[C@H](C)C[C@@H]2OC [tacrolimus]
- impact of c.1199G > A variant on intracellular accumulation ([15]; same cellular model): significant impact

Compound: O[C@@H](COc1cccc2ncccc12)CN1CCN([C@@H]2c3ccccc3[C@@H]3[C@H](c4ccccc42)C3(F)F)CC1 [zosuquidar, zosuquidar hydrochloride]
- Rh123 intracellular fluorescence after pre-incubation with zosuquidar, cell lines overexpressing ABCB1 [1, 18]: increased to a level close to the level measured for HEKcontrol
- effect of the inhibitor on Rh123 fluorescence in the HEKcontrol batch used for haplotype functional characterization [1, 18]: small but significant effect
